# Square brackets hold non-standard residues; d marks the D form. Peptide text beside a SMILES is read from it. * marks the point of attachment. Fluorescein(5-NHCOCH2) = O=C(C*)Nc1ccc2c(c1)C(=O)OC21c2ccc(O)cc2Oc2cc(O)ccc21; pS = N[C@@H](COP(=O)(O)O)C(=O)O; Sar = CNCC(=O)O
# Target: T1, CBP KIX wild type (Mus musculus, UniProt P45481)
# T1 construct: made in house; host or cells: E. coli BL21(DE3) pArg
# Assay: Equilibrium fluorescence polarization, wild type CBP KIX
# Type: binding
# Conditions: 25° C.
# T1 sequence (P45481 586-665 limits assumed): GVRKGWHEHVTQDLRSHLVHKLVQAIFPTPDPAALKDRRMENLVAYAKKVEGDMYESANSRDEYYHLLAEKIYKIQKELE
row,Structure (SMILES),Kd [µM]
1,CC[C@H](C)[C@H](NC(=O)[C@H](Cc1ccc(O)cc1)NC(=O)[C@H](Cc1ccccc1)NC(=O)[C@H](Cc1ccccc1)NC(=O)[C@H](COP(=O)(O)O)NC(=O)[C@H](CC(C)C)NC(=O)[C@H](CCCNC(=N)N)NC(=O)[C@H](CCCNC(=N)N)NC(=O)[C@@H](NC(=O)[C@@H]1CCCN1C(=O)[C@H](C)NC(=O)[C@H](CC(=O)O)NC(=O)[C@H](CC(=O)O)NC(=O)CNC(=O)[C@@H]1CCCN1C(=O)[C@H](Cc1ccc(O)cc1)NC(=O)[C@@H](NC(=O)[C@@H]1CCCN1C(=O)[C@H](CCC(N)=O)NC(=O)[C@H](CO)NC(=O)CN(C)C(=O)CN)[C@@H](C)O)C(C)C)C(=O)N[C@@H](CC(C)C)C(=O)N[C@@H](CC(C)C)C(=O)N[C@@H](CC(=O)O)C(=O)N[C@@H](CC(C)C)C(=O)N[C@@H](Cc1ccc(O)cc1)C(=O)N[C@@H](CC(C)C)C(=O)N[C@@H](CC(=O)O)C(=O)N[C@@H](C)C(=O)N1CCC[C@H]1C(=O)NCC(=O)N[C@H](C(=O)N[C@@H](CSCC(=O)Nc1ccc2c(c1)C(=O)OC21c2ccc(O)cc2Oc2cc(O)ccc21)C(N)=O)C(C)C [P2Z] (H-G[Sar]SQPTYPGDDAPVRRL[pS]FFYILLDLYLDAPGVC(Fluorescein(5-NHCOCH2))-NH2),0.83 ± 0.08
2,CC[C@H](C)[C@H](NC(=O)[C@H](Cc1ccc(O)cc1)NC(=O)[C@H](Cc1ccccc1)NC(=O)[C@H](Cc1ccccc1)NC(=O)[C@H](COP(=O)(O)O)NC(=O)[C@H](CC(C)C)NC(=O)[C@H](CCCNC(=N)N)NC(=O)[C@H](CCCNC(=N)N)NC(=O)[C@@H](NC(=O)[C@@H]1CCCN1C(=O)[C@H](C)NC(=O)[C@H](CC(=O)O)NC(=O)[C@H](CC(=O)O)NC(=O)CNC(=O)[C@@H]1CCCN1C(=O)[C@H](Cc1ccc(O)cc1)NC(=O)[C@@H](NC(=O)[C@H](C)NC(=O)[C@H](CCC(N)=O)NC(=O)[C@H](CO)NC(=O)[C@@H]1CCCN1C(=O)CN)[C@@H](C)O)C(C)C)C(=O)N[C@@H](CC(C)C)C(=O)N[C@@H](CC(C)C)C(=O)N[C@@H](CC(=O)O)C(=O)N[C@@H](CC(C)C)C(=O)N[C@@H](Cc1ccc(O)cc1)C(=O)N[C@@H](CC(C)C)C(=O)N[C@@H](CC(=O)O)C(=O)N[C@@H](C)C(=O)N1CCC[C@H]1C(=O)NCC(=O)N[C@H](C(=O)N[C@@H](CSCC(=O)Nc1ccc2c(c1)C(=O)OC21c2ccc(O)cc2Oc2cc(O)ccc21)C(N)=O)C(C)C [P5A] (H-GPSQATYPGDDAPVRRL[pS]FFYILLDLYLDAPGVC(Fluorescein(5-NHCOCH2))-NH2),1.02 ± 0.09
3,CC[C@H](C)[C@H](NC(=O)[C@H](Cc1ccc(O)cc1)NC(=O)[C@H](Cc1ccccc1)NC(=O)[C@H](Cc1ccccc1)NC(=O)[C@H](COP(=O)(O)O)NC(=O)[C@H](CC(C)C)NC(=O)[C@H](CCCNC(=N)N)NC(=O)[C@H](CCCNC(=N)N)NC(=O)[C@@H](NC(=O)[C@@H]1CCCN1C(=O)[C@H](C)NC(=O)[C@H](CC(=O)O)NC(=O)[C@H](CC(=O)O)NC(=O)CNC(=O)[C@@H]1CCCN1C(=O)[C@H](Cc1ccc(O)cc1)NC(=O)[C@@H](NC(=O)CN(C)C(=O)[C@H](CCC(N)=O)NC(=O)[C@H](CO)NC(=O)[C@@H]1CCCN1C(=O)CN)[C@@H](C)O)C(C)C)C(=O)N[C@@H](CC(C)C)C(=O)N[C@@H](CC(C)C)C(=O)N[C@@H](CC(=O)O)C(=O)N[C@@H](CC(C)C)C(=O)N[C@@H](Cc1ccc(O)cc1)C(=O)N[C@@H](CC(C)C)C(=O)N[C@@H](CC(=O)O)C(=O)N[C@@H](C)C(=O)N1CCC[C@H]1C(=O)NCC(=O)N[C@H](C(=O)N[C@@H](CSCC(=O)Nc1ccc2c(c1)C(=O)OC21c2ccc(O)cc2Oc2cc(O)ccc21)C(N)=O)C(C)C [P5Z] (H-GPSQ[Sar]TYPGDDAPVRRL[pS]FFYILLDLYLDAPGVC(Fluorescein(5-NHCOCH2))-NH2),0.8 ± 0.03
4,CC[C@H](C)[C@H](NC(=O)[C@H](Cc1ccc(O)cc1)NC(=O)[C@H](Cc1ccccc1)NC(=O)[C@H](Cc1ccccc1)NC(=O)[C@H](COP(=O)(O)O)NC(=O)[C@H](CC(C)C)NC(=O)[C@H](CCCNC(=N)N)NC(=O)[C@H](CCCNC(=N)N)NC(=O)[C@@H](NC(=O)[C@@H]1CCCN1C(=O)[C@H](C)NC(=O)[C@H](CC(=O)O)NC(=O)[C@H](CC(=O)O)NC(=O)CNC(=O)[C@H](C)NC(=O)[C@H](Cc1ccc(O)cc1)NC(=O)[C@@H](NC(=O)[C@@H]1CCCN1C(=O)[C@H](CCC(N)=O)NC(=O)[C@H](CO)NC(=O)[C@@H]1CCCN1C(=O)CN)[C@@H](C)O)C(C)C)C(=O)N[C@@H](CC(C)C)C(=O)N[C@@H](CC(C)C)C(=O)N[C@@H](CC(=O)O)C(=O)N[C@@H](CC(C)C)C(=O)N[C@@H](Cc1ccc(O)cc1)C(=O)N[C@@H](CC(C)C)C(=O)N[C@@H](CC(=O)O)C(=O)N[C@@H](C)C(=O)N1CCC[C@H]1C(=O)NCC(=O)N[C@H](C(=O)N[C@@H](CSCC(=O)Nc1ccc2c(c1)C(=O)OC21c2ccc(O)cc2Oc2cc(O)ccc21)C(N)=O)C(C)C [P8A] (H-GPSQPTYAGDDAPVRRL[pS]FFYILLDLYLDAPGVC(Fluorescein(5-NHCOCH2))-NH2),1.07 ± 0.08
5,CC[C@H](C)[C@H](NC(=O)[C@H](Cc1ccc(O)cc1)NC(=O)[C@H](Cc1ccccc1)NC(=O)[C@H](Cc1ccccc1)NC(=O)[C@H](COP(=O)(O)O)NC(=O)[C@H](CC(C)C)NC(=O)[C@H](CCCNC(=N)N)NC(=O)[C@H](CCCNC(=N)N)NC(=O)[C@@H](NC(=O)[C@@H]1CCCN1C(=O)[C@H](C)NC(=O)[C@H](CC(=O)O)NC(=O)[C@H](CC(=O)O)NC(=O)CNC(=O)CN(C)C(=O)[C@H](Cc1ccc(O)cc1)NC(=O)[C@@H](NC(=O)[C@@H]1CCCN1C(=O)[C@H](CCC(N)=O)NC(=O)[C@H](CO)NC(=O)[C@@H]1CCCN1C(=O)CN)[C@@H](C)O)C(C)C)C(=O)N[C@@H](CC(C)C)C(=O)N[C@@H](CC(C)C)C(=O)N[C@@H](CC(=O)O)C(=O)N[C@@H](CC(C)C)C(=O)N[C@@H](Cc1ccc(O)cc1)C(=O)N[C@@H](CC(C)C)C(=O)N[C@@H](CC(=O)O)C(=O)N[C@@H](C)C(=O)N1CCC[C@H]1C(=O)NCC(=O)N[C@H](C(=O)N[C@@H](CSCC(=O)Nc1ccc2c(c1)C(=O)OC21c2ccc(O)cc2Oc2cc(O)ccc21)C(N)=O)C(C)C [P8Z] (H-GPSQPTY[Sar]GDDAPVRRL[pS]FFYILLDLYLDAPGVC(Fluorescein(5-NHCOCH2))-NH2),0.78 ± 0.05
6,CC[C@H](C)[C@H](NC(=O)[C@H](Cc1ccc(O)cc1)NC(=O)[C@H](Cc1ccccc1)NC(=O)[C@H](Cc1ccccc1)NC(=O)[C@H](COP(=O)(O)O)NC(=O)[C@H](CC(C)C)NC(=O)[C@H](CCCNC(=N)N)NC(=O)[C@H](CCCNC(=N)N)NC(=O)[C@@H](NC(=O)[C@@H]1CCCN1C(=O)[C@H](C)NC(=O)[C@H](CC(=O)O)NC(=O)[C@H](CC(=O)O)NC(=O)CNC(=O)[C@@H]1CCCN1C(=O)[C@H](Cc1ccc(O)cc1)NC(=O)[C@@H](NC(=O)[C@@H]1CCCN1C(=O)[C@H](CCC(N)=O)NC(=O)[C@H](CO)NC(=O)[C@@H]1CCCN1C(=O)CN)[C@@H](C)O)C(C)C)C(=O)N[C@@H](CC(C)C)C(=O)N[C@@H](CC(C)C)C(=O)N[C@@H](CC(=O)O)C(=O)N[C@@H](CC(C)C)C(=O)N[C@@H](C)C(=O)N[C@@H](CC(C)C)C(=O)N[C@@H](CC(=O)O)C(=O)N[C@@H](C)C(=O)N1CCC[C@H]1C(=O)NCC(=O)N[C@H](C(=O)N[C@@H](CSCC(=O)Nc1ccc2c(c1)C(=O)OC21c2ccc(O)cc2Oc2cc(O)ccc21)C(N)=O)C(C)C [Y27A] (H-GPSQPTYPGDDAPVRRL[pS]FFYILLDLALDAPGVC(Fluorescein(5-NHCOCH2))-NH2),3.09 ± 0.18

# Reference: patent US20110028686A1, “Protein binding miniature proteins” (Yale University, priority 2000, published 2011)
